According to ChEMBL document CHEMBL5724914, “Linking interpersonal differences in gut microbiota composition and drug biotransformation activity” (2024):

details: human gut metagenome, 24 h, 2 µM
Note: call rule not given here.

Row | Structure (SMILES) | Bacterial Biotransformation
1 | O=C(CCCN1CCC2(CC1)C(=O)NCN2c1ccccc1)c1ccc(F)cc1 [SPIPERONE] | Compound metabolized
2 | O=C1C(CC[S+]([O-])c2ccccc2)C(=O)N(c2ccccc2)N1c1ccccc1 (stereo not given) [SULFINPYRAZONE] | Compound metabolized

details: human gut metagenome, 24 h, 2 µM; remark: another data set of the same source

Row | Structure (SMILES) | Bacterial Biotransformation
3 | O=C(CCCN1CCC2(CC1)C(=O)NCN2c1ccccc1)c1ccc(F)cc1 [SPIPERONE] | Compound NOT metabolized
4 | O=C1C(CC[S+]([O-])c2ccccc2)C(=O)N(c2ccccc2)N1c1ccccc1 (stereo not given) [SULFINPYRAZONE] | Compound metabolized

assay: (§1) The drug is tested on WLS-220 corresponding to human gut metagenome with ENA study accession number: PRJEB37062 and ENA sample accession number: ERS12561769 for biotransformation under anaerobic condition. The drug concentrations were measured over 9 timepoints collected between 0 and 24 hours of incubation by liquid-chromatography-coupled mass spectrometry (LC–MS); details: 2 µM

Row | Structure (SMILES) | Bacterial Biotransformation
5 | O=C(CCCN1CCC2(CC1)C(=O)NCN2c1ccccc1)c1ccc(F)cc1 [SPIPERONE] | Compound metabolized
6 | O=C1C(CC[S+]([O-])c2ccccc2)C(=O)N(c2ccccc2)N1c1ccccc1 (stereo not given) [SULFINPYRAZONE] | Compound metabolized

assay: as §1, with “Z-003” for “WLS-220”, “pig” for “human”, “ERS12561803” for “ERS12561769”; details: 2 µM

Row | Structure (SMILES) | Bacterial Biotransformation
7 | O=C(CCCN1CCC2(CC1)C(=O)NCN2c1ccccc1)c1ccc(F)cc1 [SPIPERONE] | Compound NOT metabolized
8 | O=C1C(CC[S+]([O-])c2ccccc2)C(=O)N(c2ccccc2)N1c1ccccc1 (stereo not given) [SULFINPYRAZONE] | Compound metabolized

details: human gut metagenome, 24 h, 2 µM; remark: another data set of the same source

Row | Structure (SMILES) | Bacterial Biotransformation
9 | O=C(CCCN1CCC2(CC1)C(=O)NCN2c1ccccc1)c1ccc(F)cc1 [SPIPERONE] | Compound NOT metabolized
10 | O=C1C(CC[S+]([O-])c2ccccc2)C(=O)N(c2ccccc2)N1c1ccccc1 (stereo not given) [SULFINPYRAZONE] | Compound metabolized

assay: as §1, with “Z-020” for “WLS-220”, “rabbit” for “human”, “ERS12561819” for “ERS12561769”; details: 2 µM

Row | Structure (SMILES) | Bacterial Biotransformation
11 | O=C(CCCN1CCC2(CC1)C(=O)NCN2c1ccccc1)c1ccc(F)cc1 [SPIPERONE] | Compound NOT metabolized
12 | O=C1C(CC[S+]([O-])c2ccccc2)C(=O)N(c2ccccc2)N1c1ccccc1 (stereo not given) [SULFINPYRAZONE] | Compound NOT metabolized

assay: as §1, with “WLS-077” for “WLS-220”, “ERS12561750” for “ERS12561769”; details: 2 µM

Row | Structure (SMILES) | Bacterial Biotransformation
13 | O=C(CCCN1CCC2(CC1)C(=O)NCN2c1ccccc1)c1ccc(F)cc1 [SPIPERONE] | Compound NOT metabolized
14 | O=C1C(CC[S+]([O-])c2ccccc2)C(=O)N(c2ccccc2)N1c1ccccc1 (stereo not given) [SULFINPYRAZONE] | Compound metabolized

assay: as §1, with “Z-030” for “WLS-220”, “mouse” for “human”, “ERS12561829” for “ERS12561769”; details: 2 µM

Row | Structure (SMILES) | Bacterial Biotransformation
15 | O=C(CCCN1CCC2(CC1)C(=O)NCN2c1ccccc1)c1ccc(F)cc1 [SPIPERONE] | Compound NOT metabolized
16 | O=C1C(CC[S+]([O-])c2ccccc2)C(=O)N(c2ccccc2)N1c1ccccc1 (stereo not given) [SULFINPYRAZONE] | Compound NOT metabolized

details: human gut metagenome, 24 h, 2 µM; remark: another data set of the same source

Row | Structure (SMILES) | Bacterial Biotransformation
17 | O=C(CCCN1CCC2(CC1)C(=O)NCN2c1ccccc1)c1ccc(F)cc1 [SPIPERONE] | Compound metabolized
18 | O=C1C(CC[S+]([O-])c2ccccc2)C(=O)N(c2ccccc2)N1c1ccccc1 (stereo not given) [SULFINPYRAZONE] | Compound metabolized

assay: as §1, with “WLS-007” for “WLS-220”, “ERS12561742” for “ERS12561769”; details: 2 µM

Row | Structure (SMILES) | Bacterial Biotransformation
19 | O=C(CCCN1CCC2(CC1)C(=O)NCN2c1ccccc1)c1ccc(F)cc1 [SPIPERONE] | Compound NOT metabolized
20 | O=C1C(CC[S+]([O-])c2ccccc2)C(=O)N(c2ccccc2)N1c1ccccc1 (stereo not given) [SULFINPYRAZONE] | Compound metabolized

details: human gut metagenome, 24 h, 2 µM; remark: another data set of the same source

Row | Structure (SMILES) | Bacterial Biotransformation
21 | O=C(CCCN1CCC2(CC1)C(=O)NCN2c1ccccc1)c1ccc(F)cc1 [SPIPERONE] | Compound metabolized
22 | O=C1C(CC[S+]([O-])c2ccccc2)C(=O)N(c2ccccc2)N1c1ccccc1 (stereo not given) [SULFINPYRAZONE] | Compound metabolized

details: human gut metagenome, 24 h, 2 µM; remark: another data set of the same source

Row | Structure (SMILES) | Bacterial Biotransformation
23 | O=C(CCCN1CCC2(CC1)C(=O)NCN2c1ccccc1)c1ccc(F)cc1 [SPIPERONE] | Compound NOT metabolized
24 | O=C1C(CC[S+]([O-])c2ccccc2)C(=O)N(c2ccccc2)N1c1ccccc1 (stereo not given) [SULFINPYRAZONE] | Compound metabolized

details: human gut metagenome, 24 h, 2 µM; remark: another data set of the same source

Row | Structure (SMILES) | Bacterial Biotransformation
25 | O=C(CCCN1CCC2(CC1)C(=O)NCN2c1ccccc1)c1ccc(F)cc1 [SPIPERONE] | Compound metabolized
26 | O=C1C(CC[S+]([O-])c2ccccc2)C(=O)N(c2ccccc2)N1c1ccccc1 (stereo not given) [SULFINPYRAZONE] | Compound metabolized

assay: as §1, with “WLS-310” for “WLS-220”, “ERS12561785” for “ERS12561769”; details: 2 µM

Row | Structure (SMILES) | Bacterial Biotransformation
27 | O=C(CCCN1CCC2(CC1)C(=O)NCN2c1ccccc1)c1ccc(F)cc1 [SPIPERONE] | Compound metabolized
28 | O=C1C(CC[S+]([O-])c2ccccc2)C(=O)N(c2ccccc2)N1c1ccccc1 (stereo not given) [SULFINPYRAZONE] | Compound metabolized

assay: as §1, with “Z-026” for “WLS-220”, “to” for “to human gut”, “ERS12561825” for “ERS12561769”; details: 2 µM

Row | Structure (SMILES) | Bacterial Biotransformation
29 | O=C(CCCN1CCC2(CC1)C(=O)NCN2c1ccccc1)c1ccc(F)cc1 [SPIPERONE] | Compound NOT metabolized
30 | O=C1C(CC[S+]([O-])c2ccccc2)C(=O)N(c2ccccc2)N1c1ccccc1 (stereo not given) [SULFINPYRAZONE] | Compound metabolized

details: human gut metagenome, 24 h, 2 µM; remark: another data set of the same source

Row | Structure (SMILES) | Bacterial Biotransformation
31 | O=C(CCCN1CCC2(CC1)C(=O)NCN2c1ccccc1)c1ccc(F)cc1 [SPIPERONE] | Compound NOT metabolized
32 | O=C1C(CC[S+]([O-])c2ccccc2)C(=O)N(c2ccccc2)N1c1ccccc1 (stereo not given) [SULFINPYRAZONE] | Compound metabolized

details: human gut metagenome, 24 h, 2 µM; remark: another data set of the same source

Row | Structure (SMILES) | Bacterial Biotransformation
33 | O=C(CCCN1CCC2(CC1)C(=O)NCN2c1ccccc1)c1ccc(F)cc1 [SPIPERONE] | Compound NOT metabolized
34 | O=C1C(CC[S+]([O-])c2ccccc2)C(=O)N(c2ccccc2)N1c1ccccc1 (stereo not given) [SULFINPYRAZONE] | Compound metabolized

details: human gut metagenome, 24 h, 2 µM; remark: another data set of the same source

Row | Structure (SMILES) | Bacterial Biotransformation
35 | O=C(CCCN1CCC2(CC1)C(=O)NCN2c1ccccc1)c1ccc(F)cc1 [SPIPERONE] | Compound NOT metabolized
36 | O=C1C(CC[S+]([O-])c2ccccc2)C(=O)N(c2ccccc2)N1c1ccccc1 (stereo not given) [SULFINPYRAZONE] | Compound metabolized

details: human gut metagenome, 24 h, 2 µM; remark: another data set of the same source

Row | Structure (SMILES) | Bacterial Biotransformation
37 | O=C(CCCN1CCC2(CC1)C(=O)NCN2c1ccccc1)c1ccc(F)cc1 [SPIPERONE] | Compound NOT metabolized
38 | O=C1C(CC[S+]([O-])c2ccccc2)C(=O)N(c2ccccc2)N1c1ccccc1 (stereo not given) [SULFINPYRAZONE] | Compound metabolized

assay: as §1, with “Z-008” for “WLS-220”, “to” for “to human gut”, “ERS12561808” for “ERS12561769”; details: 2 µM

Row | Structure (SMILES) | Bacterial Biotransformation
39 | O=C(CCCN1CCC2(CC1)C(=O)NCN2c1ccccc1)c1ccc(F)cc1 [SPIPERONE] | Compound NOT metabolized
40 | O=C1C(CC[S+]([O-])c2ccccc2)C(=O)N(c2ccccc2)N1c1ccccc1 (stereo not given) [SULFINPYRAZONE] | Compound metabolized
